Among the data in US11401246B2, “Triazole glycolate oxidase inhibitors” (CANTERO THERAPEUTICS, INC., priority 2018, dated 2022) are IC50 values, retold here.

Counter-ions that a name gives are not always drawn. Bounds are passed on as bounds.

For the first assay, the target named is T1, human glycolate oxidase (hGO) (Homo sapiens, UniProt Q9UJM8).
T1 construct: His-tag (6 histidines, pET-15b) (N); made in house; host or cells: E. coli BL21 (DE3)
T1 sequence (Q9UJM8 1-370): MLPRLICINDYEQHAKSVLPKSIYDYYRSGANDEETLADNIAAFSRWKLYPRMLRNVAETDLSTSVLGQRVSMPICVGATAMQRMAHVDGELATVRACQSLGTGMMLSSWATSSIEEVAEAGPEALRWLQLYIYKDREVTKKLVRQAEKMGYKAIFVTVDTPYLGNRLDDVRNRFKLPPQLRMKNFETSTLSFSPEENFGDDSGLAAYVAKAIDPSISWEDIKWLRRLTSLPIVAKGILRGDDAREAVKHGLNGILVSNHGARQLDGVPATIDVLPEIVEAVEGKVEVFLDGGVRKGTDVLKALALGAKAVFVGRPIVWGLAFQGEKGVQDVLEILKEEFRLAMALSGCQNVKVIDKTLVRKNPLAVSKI
Put plainly: In vitro inhibition of human glycolate oxidase (enzymatic assay, HRP-coupled Trinder reaction).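 For % Inhibition: values are IC50 potency bins despite the % Inhibition label.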 The class given is biochemical.
Conditions: not given
The text has this: The catalytic reactions used for assaying glycolate oxidase activity in the presence of compounds according to the present disclosure are outlined in FIG. 2. Glycolate oxidase (GO)-catalyzed conversion of glycolate to glyoxylate (top reaction), with the concomitant reduction of the cofactor flavin mononucleotide (FMN), uses molecular oxygen (O2) for recovering its oxidative state, releasing hydrogen peroxide (H2O2). The Trinder reaction (bottom reaction), in which horseradish peroxidase (HRP) uses hydrogen peroxide, 4-aminoantipyrine and a phenol derivative (sulphonated DCIP) to generate a quinoneimine dye that is spectrophotometrically measured.
Human glycolate oxidase (hGO) expression. BL21 (DE3) E. coli transformed with recombinant pET-15b expression vector with the N-terminal His-tag human Hao1 cDNA was grown in LB medium in the presence of 0.1 mg/ml ampicillin. For purification of recombinant human glycolate oxidase (hGO) expressed in BL21 E. coli, bacteria pellets were thawed and re-suspended in 2 ml lysis buffer (50 mM NaH2PO4, 300 mM NaCl, 10 mM imidazole, 50 μM FMN, pH 7.5), and then treated for 30 minutes with 1 mM PMSF for protease inhibition, 0.1% Triton X-100 and 0.2 mg/ml lysozyme to break cellular membranes. After sonication, cells were centrifuged and the supernatant containing the total cellular extract (pre-column fraction) was loaded into a Ni-NTA agarose column and incubated for 30 minutes at 4° C. to allow binding of the 6 histidine tail of recombinant GO protein to the nickel ions. The column was washed with two bed volumes of lysis buffer with 20 mM imidazole to eliminate unbound proteins (wash fraction). GO was eluted using the same buffer with 300 mM imidazole. Fraction containing purified GO was dialyzed against 300 ml of dialysis buffer (50 mM NaH2PO4, 300 mM NaCl, pH 7.5) at 4° C. in agitation overnight, and then kept at 4° C. in darkness. Protein were quantified by the bicinchoninic acid (BCA) assay.
Enzymatic assays. Enzymatic activity of hGO was determined in the presence of glycolate as substrate (40 mM glycolic acid) and phosphate buffer (50 mM KPO4, 0.1 mM EDTA, pH 7). The production of glyoxylate was indirectly measured by the quantification of hydrogen peroxide formed during the first oxidation reaction. […] Enzymatic activity was calculated at 1 minute after initiation of the Trinder reaction.
Take `O=C(O)c1nn[nH]c1Oc1ccc(Cl)c(F)c1` [Example 8, 5-(4-chloro-3-fluorophenoxy)-1H-1,2,3-triazole-4-carboxylic Acid]: the IC50 is 100 to 200 nM.
With `O=C(O)c1nn[nH]c1Oc1ccc(-c2ccc(Br)cc2)cc1` [Example 10, 5-((4′-bromo-[1,1′-biphenyl]-4-yl)oxy)-1H-1,2,3-triazole-4-carboxylic Acid], the IC50 is < 100 nM.
Same read-out and setting: the same measure for `N#Cc1cccc(-c2ccc(Oc3[nH]nnc3C(=O)O)cc2)c1` [Example 20, 5-((3′-cyano-[1,1′-biphenyl]-4-yl)oxy)-1H-1,2,3-triazole-4-carboxylic Acid]: 100 to 200 nM.
Compound `COc1ccc(-c2ccc(Oc3[nH]nnc3C(=O)O)cc2)cc1` [Example 22, 5-((4′-methoxy-[1,1′-biphenyl]-4-yl)oxy)-1H-1,2,3-triazole-4-carboxylic Acid] gave an IC50 of 100 to 200 nM.
For `Cc1ccc(-c2ccc(Oc3[nH]nnc3C(=O)O)cc2)cc1` [Example 31, 5-((4′-methyl-[1,1′-biphenyl]-4-yl)oxy)-1H-1,2,3-triazole-4-carboxylic Acid], the IC50 is < 100 nM.
On to `O=C(O)c1nn[nH]c1Oc1ccc(Cl)cc1` [Example 36, 5-(4-chlorophenoxy)-1H-1,2,3-triazole-4-carboxylic Acid], for which the IC50 was < 100 nM.

The same assay, now with this note: recombinant hGO, 40 mM glycolic acid, pH 7, read at 515 nm, 1 minute after initiation of Trinder reaction; read-out: % Inhibition.
For `O=C(O)c1nn[nH]c1Oc1ccc(N2CCOCC2)cc1` [Example 1, 5-(4-morpholinophenoxy)-1H-1,2,3-triazole-4-carboxylic Acid], the IC50 was > 200 nM.
As to `O=C(O)c1nn[nH]c1Oc1ccc(N2CCNCC2)cc1` [Example 2, 5-(4-(piperazin-1-yl)phenoxy)-1H-1,2,3-triazole-4-carboxylic Acid], the IC50 was < 100 nM.
With `CC(=O)N1CCN(c2ccc(Oc3[nH]nnc3C(=O)O)cc2)CC1` [Example 3, 5-(4-(4-acetylpiperazin-1-yl)phenoxy)-1H-1,2,3-triazole-4-carboxylic Acid], the IC50 is > 200 nM.
Consider `O=C(O)c1nn[nH]c1Oc1ccc(-n2cccn2)cc1` [Example 4, 5-(4-(1H-pyrazol-1-yl)phenoxy)-1H-1,2,3-triazole-4-carboxylic Acid], for which the IC50 was < 100 nM.
On to `O=C(O)c1nn[nH]c1Oc1ccccc1Br` [Example 5, 5-(2-bromophenoxy)-1H-1,2,3-triazole-4-carboxylic Acid], for which the IC50 was > 200 nM.
In the case of `O=C(O)c1nn[nH]c1Oc1ccc(Br)cc1` [Example 6, 5-(4-bromophenoxy)-1H-1,2,3-triazole-4-carboxylic Acid], the IC50 is < 100 nM.
Regarding `O=C(O)c1nn[nH]c1Oc1cccc(Br)c1` [Example 7, 5-(3-bromophenoxy)-1H-1,2,3-triazole-4-carboxylic Acid], the IC50 is 100 to 200 nM.
On to `O=C(O)c1nn[nH]c1Oc1ccc(F)cc1` [Example 9, 5-(4-fluorophenoxy)-1H-1,2,3-triazole-4-carboxylic Acid Sodium Salt], for which the IC50 was > 200 nM.
On to `O=C(O)c1nn[nH]c1Oc1ccc(-c2cn[nH]c2)cc1` [Example 11, 5-(4-(1H-pyrazol-4-yl)phenoxy)-1H-1,2,3-triazole-4-carboxylic Acid], for which the IC50 was 100 to 200 nM.
Still for that read-out and setting: the same measure for `O=C(O)c1nn[nH]c1Oc1ccc(-c2ccn[nH]2)cc1` [Example 12, 5-(4-(1H-pyrazol-5-yl)phenoxy)-1H-1,2,3-triazole-4-carboxylic Acid]: < 100 nM; for `Cc1ncc(-c2ccc(Oc3[nH]nnc3C(=O)O)cc2)cn1` [Example 13, 5-(4-(2-methylpyrimidin-5-yl)phenoxy)-1H-1,2,3-triazole-4-carboxylic Acid]: < 100 nM; for `O=C(O)c1nn[nH]c1Oc1ccc(-c2cccnc2)cc1` [Example 14, 5-(4-(pyridin-3-yl)phenoxy)-1H-1,2,3-triazole-4-carboxylic Acid]: 100 to 200 nM.
As to `O=C(O)c1nn[nH]c1Oc1ccc(-c2ccc(-c3ccncc3)cc2)cc1` [Example 15, 5-((4′-(pyridin-4-yl)-[1,1′-biphenyl]-4-yl)oxy)-1H-1,2,3-triazole-4-carboxylic Acid], the IC50 is < 100 nM.
Consider `O=C(O)c1nn[nH]c1Oc1ccc(-c2ccc(-c3cccc(OC(F)F)c3)cc2)cc1` [Example 16, 5-((3″-(difluoromethoxy)-[1,1′:4′,1″-terphenyl]-4-yl)oxy)-1H-1,2,3-triazole-4-carboxylic Acid], for which the IC50 is < 100 nM.
As for `O=C(O)c1nn[nH]c1Oc1ccc(-c2ccc(-c3ccc(OC(F)F)cc3)cc2)cc1` [Example 17, 5-((4″-(difluoromethoxy)-[1,1′:4′,1″-terphenyl]-4-yl)oxy)-1H-1,2,3-triazole-4-carboxylic Acid], the IC50 is > 200 nM.
Regarding `O=C(O)c1nn[nH]c1Oc1ccc(-c2cccnc2F)cc1` [Example 18, 5-(4-(2-fluoropyridin-3-yl)phenoxy)-1H-1,2,3-triazole-4-carboxylic Acid], the IC50 was < 100 nM.
Take `O=C(O)c1nn[nH]c1Oc1ccc(-c2ccncc2)cc1` [Example 19, 5-(4-(pyridin-4-yl)phenoxy)-1H-1,2,3-triazole-4-carboxylic Acid]: the IC50 was < 100 nM.
Still for that read-out and setting: the same measure for `O=C(O)c1nn[nH]c1Oc1ccc(-c2cnn(C3CCC3)c2)cc1` [Example 21, 5-(4-(1-cyclobutyl-1H-pyrazol-4-yl)phenoxy)-1H-1,2,3-triazole-4-carboxylic Acid]: < 100 nM; for `O=C(O)c1nn[nH]c1Oc1ccc(-c2ccsc2)cc1` [Example 23, 5-(4-(thiophen-3-yl)phenoxy)-1H-1,2,3-triazole-4-carboxylic Acid]: < 100 nM.
Regarding `O=C(O)c1nn[nH]c1Oc1ccc(-c2nccs2)cc1` [Example 25, 5-(4-(thiazol-2-yl)phenoxy)-1H-1,2,3-triazole-4-carboxylic Acid], the IC50 lay in the range of 100 to 200 nM.
For `O=C(O)c1nn[nH]c1Oc1ccc(-c2ncco2)cc1` [Example 26, 5-(4-(oxazol-2-yl)phenoxy)-1H-1,2,3-triazole-4-carboxylic Acid], the IC50 fell in the range of 100 to 200 nM.
With `O=C(O)c1nn[nH]c1Oc1ccc(-c2ccc3nccn3c2)cc1` [Example 27, 5-(4-(imidazo[1,2-a]pyridin-6-yl)phenoxy)-1H-1,2,3-triazole-4-carboxylic Acid], the IC50 is 100 to 200 nM.
With `O=C(O)c1nn[nH]c1Oc1ccc(-c2ccccc2OC(F)F)cc1` [Example 28, 5-((2′-(difluoromethoxy)-[1,1′-biphenyl]-4-yl)oxy)-1H-1,2,3-triazole-4-carboxylic Acid], the IC50 was 100 to 200 nM.
On the same count and under the same terms, the same measure for `N#Cc1ccc(-c2ccc(Oc3nn[nH]c3C(=O)O)cc2)cc1` [Example 29, 5-((4′-cyano-[1,1′-biphenyl]-4-yl)oxy)-1H-1,2,3-triazole-4-carboxylic Acid]: 100 to 200 nM.
Consider `CC(C)c1ccc(-c2ccc(Oc3[nH]nnc3C(=O)O)cc2)cc1` [Example 32, 5-((4′-isopropyl-[1,1′-biphenyl]-4-yl)oxy)-1H-1,2,3-triazole-4-carboxylic Acid], for which the IC50 was < 100 nM.
Regarding `O=C(O)c1nn[nH]c1Oc1ccc(-c2ccc(F)c(Cl)c2)cc1` [Example 33, 5-((3′-chloro-4′-fluoro-[1,1′-biphenyl]-4-yl)oxy)-1H-1,2,3-triazole-4-carboxylic Acid], the IC50 is < 100 nM.
Regarding `O=C(O)c1nn[nH]c1Oc1ccc(-c2cccc(F)c2F)cc1` [Example 34, 5-((2′,3′-difluoro-[1,1′-biphenyl]-4-yl)oxy)-1H-1,2,3-triazole-4-carboxylic Acid], the IC50 was in the range of 100 to 200 nM.
On the same count and under the same terms, next, `CC(C)(C)c1ccc(-c2ccc(Oc3[nH]nnc3C(=O)O)cc2)cc1` [Example 35, 5-((4′-(tert-butyl)-[1,1′-biphenyl]-4-yl)oxy)-1H-1,2,3-triazole-4-carboxylic Acid]: 100 to 200 nM.
For `O=C(O)c1nn[nH]c1Oc1ccc(-c2cnccn2)cc1` [Example 37, 5-(4-(pyrazin-2-yl)phenoxy)-1H-1,2,3-triazole-4-carboxylic Acid], the IC50 was < 100 nM.
